How the values were obtained:
BLK = BLK (Homo sapiens, UniProt P51451); experiment: panel enzyme assay of 257 kinases; assay type: biochemical; details: read-out: % Inhibition by Compound (1) at 1000 nmol/L
Method: (§1) To investigate further kinase selectivity of Compound (1), a panel enzyme assay of 257 kinases for Compound (1) was conducted.

BMX = BMX (Homo sapiens, UniProt P51813); experiment: panel enzyme assay of 257 kinases; assay type: biochemical; details: read-out: % Inhibition by Compound (1) at 1000 nmol/L
Method: as §1

BTK = BTK (Homo sapiens, UniProt Q06187); experiment: panel enzyme assay of 257 kinases; assay type: biochemical; details: read-out: % Inhibition by Compound (1) at 1000 nmol/L
Method: as §1

DDR1 = DDR1 (Homo sapiens, UniProt Q08345); experiment: panel enzyme assay of 257 kinases; assay type: biochemical; details: read-out: % Inhibition by Compound (1) at 1000 nmol/L
Sequence of DDR1 (Q08345 19-913, species assumed): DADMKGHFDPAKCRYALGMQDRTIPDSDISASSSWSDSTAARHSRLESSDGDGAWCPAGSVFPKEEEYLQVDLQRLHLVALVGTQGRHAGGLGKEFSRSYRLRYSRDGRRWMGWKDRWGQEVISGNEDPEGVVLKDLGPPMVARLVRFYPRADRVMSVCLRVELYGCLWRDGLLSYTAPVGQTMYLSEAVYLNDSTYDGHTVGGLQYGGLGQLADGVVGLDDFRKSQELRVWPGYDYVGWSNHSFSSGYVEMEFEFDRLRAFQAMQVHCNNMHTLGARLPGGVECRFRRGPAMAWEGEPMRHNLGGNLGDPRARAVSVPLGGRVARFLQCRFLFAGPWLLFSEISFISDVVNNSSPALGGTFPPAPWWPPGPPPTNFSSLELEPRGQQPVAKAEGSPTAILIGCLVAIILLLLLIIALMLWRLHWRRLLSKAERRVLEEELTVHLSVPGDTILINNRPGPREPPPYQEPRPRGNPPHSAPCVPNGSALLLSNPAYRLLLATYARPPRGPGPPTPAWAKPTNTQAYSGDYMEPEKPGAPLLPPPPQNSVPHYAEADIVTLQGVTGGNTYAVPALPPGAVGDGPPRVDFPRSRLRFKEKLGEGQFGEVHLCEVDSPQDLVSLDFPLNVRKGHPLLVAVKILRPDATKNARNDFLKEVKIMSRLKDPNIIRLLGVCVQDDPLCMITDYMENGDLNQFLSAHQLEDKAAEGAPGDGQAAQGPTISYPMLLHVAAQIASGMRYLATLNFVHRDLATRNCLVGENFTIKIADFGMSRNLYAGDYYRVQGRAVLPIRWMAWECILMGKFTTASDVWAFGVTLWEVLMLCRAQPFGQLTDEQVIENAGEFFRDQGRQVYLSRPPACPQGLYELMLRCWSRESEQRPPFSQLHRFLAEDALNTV
Method: as §1

EGFR = EGFR (Homo sapiens, UniProt P00533); experiment: panel enzyme assay of 257 kinases; assay type: biochemical; details: read-out: % Inhibition by Compound (1) at 1000 nmol/L
Method: as §1

EPHA6 = EPHA6 (Homo sapiens, UniProt Q9UF33); experiment: panel enzyme assay of 257 kinases; assay type: biochemical; details: read-out: % Inhibition by Compound (1) at 1000 nmol/L
Sequence of EPHA6 (Q9UF33 23-1036, species assumed): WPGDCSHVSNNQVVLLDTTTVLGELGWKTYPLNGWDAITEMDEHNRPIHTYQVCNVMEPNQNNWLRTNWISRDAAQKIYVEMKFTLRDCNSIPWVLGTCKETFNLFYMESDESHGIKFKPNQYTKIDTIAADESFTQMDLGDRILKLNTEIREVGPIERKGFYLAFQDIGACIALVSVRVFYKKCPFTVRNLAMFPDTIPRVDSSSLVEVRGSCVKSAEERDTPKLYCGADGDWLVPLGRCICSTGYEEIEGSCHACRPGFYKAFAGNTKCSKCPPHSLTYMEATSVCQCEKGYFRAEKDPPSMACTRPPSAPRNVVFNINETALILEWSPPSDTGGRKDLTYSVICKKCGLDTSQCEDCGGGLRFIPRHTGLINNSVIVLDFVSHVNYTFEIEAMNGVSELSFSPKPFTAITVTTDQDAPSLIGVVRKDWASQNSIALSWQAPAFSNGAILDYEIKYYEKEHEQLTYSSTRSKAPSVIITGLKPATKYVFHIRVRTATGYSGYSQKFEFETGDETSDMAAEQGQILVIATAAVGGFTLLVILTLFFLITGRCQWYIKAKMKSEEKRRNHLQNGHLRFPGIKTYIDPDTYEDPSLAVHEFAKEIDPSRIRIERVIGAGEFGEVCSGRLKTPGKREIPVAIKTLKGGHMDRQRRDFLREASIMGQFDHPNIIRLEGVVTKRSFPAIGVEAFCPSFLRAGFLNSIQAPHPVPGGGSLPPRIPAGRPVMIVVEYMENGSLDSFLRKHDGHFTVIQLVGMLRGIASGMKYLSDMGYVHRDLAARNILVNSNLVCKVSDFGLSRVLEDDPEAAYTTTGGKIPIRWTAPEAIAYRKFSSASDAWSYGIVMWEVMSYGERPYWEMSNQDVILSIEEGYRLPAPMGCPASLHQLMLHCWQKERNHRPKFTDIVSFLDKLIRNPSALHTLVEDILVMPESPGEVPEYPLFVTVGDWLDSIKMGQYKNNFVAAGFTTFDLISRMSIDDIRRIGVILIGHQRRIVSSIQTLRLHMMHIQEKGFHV
Method: as §1

FLT4 = FLT4 (Homo sapiens, UniProt P35916); experiment: panel enzyme assay of 257 kinases; assay type: biochemical; details: read-out: % Inhibition by Compound (1) at 1000 nmol/L
Method: as §1

HER2 = HER2 (Homo sapiens, UniProt P04626); experiment: panel enzyme assay of 257 kinases; assay type: biochemical; details: read-out: % Inhibition by Compound (1) at 1000 nmol/L
Sequence of HER2 (P04626 23-1255): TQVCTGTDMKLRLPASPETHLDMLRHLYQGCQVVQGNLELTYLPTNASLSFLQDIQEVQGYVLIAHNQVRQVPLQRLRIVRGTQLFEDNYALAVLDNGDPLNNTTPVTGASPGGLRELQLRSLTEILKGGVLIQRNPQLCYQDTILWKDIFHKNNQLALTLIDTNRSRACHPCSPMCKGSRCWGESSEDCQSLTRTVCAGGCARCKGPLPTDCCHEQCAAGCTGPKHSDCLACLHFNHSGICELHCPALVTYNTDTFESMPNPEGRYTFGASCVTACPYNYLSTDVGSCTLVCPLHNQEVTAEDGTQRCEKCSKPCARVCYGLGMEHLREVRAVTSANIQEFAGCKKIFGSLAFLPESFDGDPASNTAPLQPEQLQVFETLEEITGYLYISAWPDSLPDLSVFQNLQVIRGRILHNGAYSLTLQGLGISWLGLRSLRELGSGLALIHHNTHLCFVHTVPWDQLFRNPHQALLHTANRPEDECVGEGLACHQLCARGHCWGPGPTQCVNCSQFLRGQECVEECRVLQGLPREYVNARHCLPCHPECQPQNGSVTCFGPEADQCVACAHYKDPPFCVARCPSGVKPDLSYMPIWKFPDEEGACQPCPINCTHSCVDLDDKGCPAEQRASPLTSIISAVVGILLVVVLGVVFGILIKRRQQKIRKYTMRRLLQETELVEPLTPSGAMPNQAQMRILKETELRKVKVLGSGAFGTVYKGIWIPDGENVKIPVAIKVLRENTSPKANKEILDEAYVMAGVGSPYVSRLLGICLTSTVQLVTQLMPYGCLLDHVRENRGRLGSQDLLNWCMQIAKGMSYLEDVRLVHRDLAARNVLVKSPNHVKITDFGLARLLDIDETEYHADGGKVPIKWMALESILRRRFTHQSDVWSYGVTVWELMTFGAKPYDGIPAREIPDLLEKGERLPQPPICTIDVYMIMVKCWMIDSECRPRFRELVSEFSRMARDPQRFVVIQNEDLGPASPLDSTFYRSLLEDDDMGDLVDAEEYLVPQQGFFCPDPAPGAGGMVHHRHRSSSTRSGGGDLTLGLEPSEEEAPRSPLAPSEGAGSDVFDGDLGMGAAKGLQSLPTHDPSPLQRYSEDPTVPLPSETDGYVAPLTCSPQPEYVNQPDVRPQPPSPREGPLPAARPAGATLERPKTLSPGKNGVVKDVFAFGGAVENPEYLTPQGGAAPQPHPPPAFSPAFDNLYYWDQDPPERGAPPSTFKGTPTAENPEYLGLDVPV
Method: as §1

HER4 = HER4 (Homo sapiens, UniProt Q15303); experiment: panel enzyme assay of 257 kinases; assay type: biochemical; details: read-out: % Inhibition by Compound (1) at 1000 nmol/L
Method: as §1

ITK = ITK (Homo sapiens, UniProt Q08881); experiment: panel enzyme assay of 257 kinases; assay type: biochemical; details: read-out: % Inhibition by Compound (1) at 1000 nmol/L
Method: as §1

JAK3 = JAK3 (Homo sapiens, UniProt P52333); experiment: panel enzyme assay of 257 kinases; assay type: biochemical; details: read-out: % Inhibition by Compound (1) at 1000 nmol/L
Sequence of JAK3 (P52333 whole entry, species assumed): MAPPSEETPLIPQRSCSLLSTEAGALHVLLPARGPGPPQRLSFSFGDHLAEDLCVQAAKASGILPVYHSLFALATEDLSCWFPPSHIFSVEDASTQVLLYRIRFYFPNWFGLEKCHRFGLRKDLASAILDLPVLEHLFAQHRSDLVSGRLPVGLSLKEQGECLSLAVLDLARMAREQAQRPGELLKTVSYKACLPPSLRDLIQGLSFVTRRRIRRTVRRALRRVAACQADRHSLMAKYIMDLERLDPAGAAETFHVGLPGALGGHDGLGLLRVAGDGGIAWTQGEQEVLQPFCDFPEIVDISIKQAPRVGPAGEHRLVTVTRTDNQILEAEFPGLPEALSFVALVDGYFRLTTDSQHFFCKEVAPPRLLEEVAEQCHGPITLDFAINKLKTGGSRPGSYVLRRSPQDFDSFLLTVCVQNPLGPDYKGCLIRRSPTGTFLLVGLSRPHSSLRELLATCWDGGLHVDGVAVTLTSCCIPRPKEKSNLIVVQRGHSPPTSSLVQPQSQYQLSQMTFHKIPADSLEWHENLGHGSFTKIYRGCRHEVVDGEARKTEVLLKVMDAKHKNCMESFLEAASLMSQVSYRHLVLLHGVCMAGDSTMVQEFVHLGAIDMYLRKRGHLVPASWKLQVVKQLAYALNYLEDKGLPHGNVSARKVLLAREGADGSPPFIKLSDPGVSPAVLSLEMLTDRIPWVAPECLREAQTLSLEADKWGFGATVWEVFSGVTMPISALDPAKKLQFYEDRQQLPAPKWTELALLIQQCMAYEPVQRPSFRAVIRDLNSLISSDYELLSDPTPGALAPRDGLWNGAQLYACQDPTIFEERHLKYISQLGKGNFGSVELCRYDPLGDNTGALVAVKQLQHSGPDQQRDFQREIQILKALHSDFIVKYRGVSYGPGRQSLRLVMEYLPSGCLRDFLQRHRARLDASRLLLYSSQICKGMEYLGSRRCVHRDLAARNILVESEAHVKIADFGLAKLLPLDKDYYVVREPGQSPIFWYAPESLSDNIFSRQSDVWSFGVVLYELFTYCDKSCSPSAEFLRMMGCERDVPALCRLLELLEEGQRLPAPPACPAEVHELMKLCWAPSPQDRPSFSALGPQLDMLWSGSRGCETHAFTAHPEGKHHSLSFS
Method: as §1

KDR = KDR (Homo sapiens, UniProt P35968); experiment: panel enzyme assay of 257 kinases; assay type: biochemical; details: read-out: % Inhibition by Compound (1) at 1000 nmol/L
Method: as §1

TEC = TEC (Homo sapiens, UniProt P42680); experiment: panel enzyme assay of 257 kinases; assay type: biochemical; details: read-out: % Inhibition by Compound (1) at 1000 nmol/L
Method: as §1

TXK = TXK (Homo sapiens, UniProt P42681); experiment: panel enzyme assay of 257 kinases; assay type: biochemical; details: read-out: % Inhibition by Compound (1) at 1000 nmol/L
Method: as §1

BT-474 cells = experiment: growth inhibitory effect in human cancer cell lines (GI50); assay type: cell-based; details: breast cancer, HER2 gene amplification
Description: (§2) Among the 9 cell lines tested, HER2 gene amplification has previously been reported in BT-474 cells (breast cancer) and NCI-N87 cells (gastric cancer), while HER2 gene mutation (DelG776insVC) has been reported in NCI-H1781 cells (lung cancer).

NCI-H1781 cells = experiment: as above; assay type: cell-based; details: lung cancer, HER2 DelG776insVC
Description: as §2

NCI-N87 cells = experiment: as above; assay type: cell-based; details: gastric cancer, HER2 gene amplification
Description: as §2

[1] = tested on: NCI-H1975 EGFR D770_N771insSVD cells; experiment: as above; assay type: cell-based; details: lung cancer, EGFR exon 20 insertion
[2] = plasma protein binding, equilibrium dialysis; assay type: in vitro ADME
Method: Plasma protein binding of Compound (1). Plasma protein binding of Compound (1) in mice, rats, dogs, monkeys, and humans was determined using the equilibrium dialysis method.

BCRP = tested on: T1, BCRP; experiment: substrate susceptibility on human BCRP, bidirectional transcellular transport, BCRP/MDCK II cells; assay type: in vitro ADME; details: human, with Ko143 10 μmol/L; read-out: net flux ratio
T1 construct: expressed in transfected cells; host or cells: MDCK II (canine kidney) cells expressing human BCRP; parent MDCK II as control
Method: (§3) Substrate susceptibility of Compound (1) on human BCRP. Time-dependence of the bidirectional transcellular transport of 0.3, 0.5, 1, 3, and 30 μmol/L Compound (1) across human BCRP/Madin-Darby canine kidney II (MDCK II) cells and parent/MDCK II cells was analyzed.

human BCRP = tested on: T2, human BCRP; experiment: as above; assay type: in vitro ADME; details: human
T2 construct: expressed in transfected cells; host or cells: MDCK II (canine kidney) cells expressing human BCRP; parent MDCK II as control
Method: as §3

[3] = tested on: NCI-N87 xenografts relapsed from T-mab and P-mab; experiment: refractory T-mab/P-mab model Step II; assay type: in vivo; details: for RTV (mean ± SE): Day 15 to Day 1 (Step II); for BWC (mean ± SE): Day 15 vs Day 1 (Step II); for T/C: Step II Day 15, vs T-mab + P-mab group; for Number of Death / TV (mean ± SE): Step II Day 15
Method: Male nude mice (BALB/cAJcl-mu/mu) were implanted with NCI-N87 human gastric carcinoma (HER2 overexpressing); 1.0×10^7 cells in 100 μL of PBS were implanted subcutaneously per mouse.
The tumor volumes (TV, mm^3) and body weights of the mice were recorded.

[4] = tested on: refractory T-DM1 NCI-N87 tumor fragment #6; experiment: refractory T-DM1 tumor fragment model, comparison to lapatinib and tucatinib; assay type: in vivo, male nude mice (BALB/cAJcl-nu/nu); details: for antitumor effect (tumor volume): 21 days
Method: Cancer Sci. 2020 June; 111(6):2123-2131. The NCI-N87 tumor fragment #6 obtained from the above procedure was then passaged two times into male nude mice (BALB/cAJcl-nu/nu) subcutaneously before the efficacy test of Compound (1).
The tumor volumes (TV, mnm^3) and body weights of the mice were recorded.

Sequence of BLK (P51451 whole entry, species assumed): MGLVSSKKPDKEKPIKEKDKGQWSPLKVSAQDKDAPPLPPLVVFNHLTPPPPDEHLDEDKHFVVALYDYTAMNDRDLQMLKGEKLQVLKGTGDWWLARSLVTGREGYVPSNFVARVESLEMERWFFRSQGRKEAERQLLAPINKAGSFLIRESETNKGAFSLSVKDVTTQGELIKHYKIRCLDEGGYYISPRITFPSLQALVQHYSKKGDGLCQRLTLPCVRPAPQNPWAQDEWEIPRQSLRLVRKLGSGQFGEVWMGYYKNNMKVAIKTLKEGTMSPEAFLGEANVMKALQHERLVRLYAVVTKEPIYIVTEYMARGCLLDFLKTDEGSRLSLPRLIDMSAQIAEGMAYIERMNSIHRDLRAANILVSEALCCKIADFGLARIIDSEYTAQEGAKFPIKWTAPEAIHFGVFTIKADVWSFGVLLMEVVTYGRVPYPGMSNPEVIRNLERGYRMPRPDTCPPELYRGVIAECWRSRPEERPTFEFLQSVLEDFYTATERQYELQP

## C=CC(=O)N1C[C@H](n2c(C#CC3CC3)c(C(=O)N[C@H](C)c3ccccc3)c3c(N)ncnc32)C[C@@H]1C [Compound (1), 7-((3R,5S)-1-acryloyl-5-methylpyrrolidin-3-yl)-4-amino-6-(cyclopropylethynyl)-N—((R)-1-phenylethyl)-7H-pyrrolo[2,3-d]pyrimidine-5-carboxamide]
BLK
  inhibition at 1 µM: 64.7%
BMX
  inhibition at 1 µM: 98.9%
BTK
  inhibition at 1 µM: 80%
DDR1
  inhibition at 1 µM: 86%
EGFR
  inhibition at 1 µM: 98.3%
EPHA6
  inhibition at 1 µM: 72.9%
FLT4
  inhibition at 1 µM: 80.4%
HER2
  inhibition at 1 µM: 100%
HER4
  inhibition at 1 µM: 98.4%
ITK
  inhibition at 1 µM: 56.4%
JAK3
  inhibition at 1 µM: 99.2%
KDR
  inhibition at 1 µM: 67.2%
TEC
  inhibition at 1 µM: 81.7%
TXK
  inhibition at 1 µM: 89.4%
BT-474 cells
  GI50: 2.05 ± 0.48 nM
NCI-H1781 cells
  GI50: 5.85 ± 2.83 nM
NCI-N87 cells
  GI50: 0.891 ± 0.312 nM
[1]
  GI50: 8.71 ± 4.56 nM
[2]; dog, dogs, 0.2, 2, and 20 μmol/L
  fraction unbound: 0.02 to 0.026
[2]; human, humans, 0.2, 2, and 20 μmol/L
  fraction unbound: 0.004 to 0.006
[2]; monkey, monkeys, 0.2, 2, and 20 μmol/L
  fraction unbound: 0.015 to 0.02
[2]; mouse, mice, 0.2, 2, and 20 μmol/L
  fraction unbound: 0.005 to 0.012
[2]; rat, rats, 0.2, 2, and 20 μmol/L
  fraction unbound: 0.011 to 0.027
BCRP
  efflux ratio at 2 h: 2 ± 0.5
  efflux ratio at 3 h: 1.4 ± 0.2
Human BCRP; with Ko143 10 μmol/L, read-out: net flux ratio
  efflux ratio at 2 h, 0.5 μmol/L: 1.2 ± 0.3
Human BCRP; with Ko143 (concentration not stated for this arm), read-out: net flux ratio
  efflux ratio at 4 h, 0.3 μmol/L: 1.1 ± 0.2
Human BCRP; 0.3 μmol/L Compound (1), 3 and 4 hours, read-out: flux ratios in parent and human BCRP/MDCK II cells
  efflux ratio at 0.3 μmol/L: > 2
[3]; 12.5 and 25 mg/kg/day
  body weight loss (tolerance): did not cause severe body weight loss
[3]; 12.5 mg/kg/day po Days 1-14
  RTV (mean ± SE): 1.2
  BWC (mean ± SE): −1.2%
  T/C: 52.5%
  Number of Death: 0
  TV (mean ± SE): 412.5 mm^3
[3]; 25 mg/kg/day po Days 1-14
  RTV (mean ± SE): 1.0
  BWC (mean ± SE): −4.4%
  T/C: 46.1%
  Number of Death: 0
  TV (mean ± SE): 362.4 mm^3
[4]; 12.5 mg/kg/day PO once per day
  antitumor effect (tumor volume): arresting tumor growth
[4]; 20 mg/kg/day PO once per day
  antitumor effect (tumor volume): inducing tumor regression
[4]; 12.5 and 20 mg/kg/day PO
  antitumor effect compared to lapatinib (50 mg/kg b.i.d.) or tucatinib (75 mg/kg b.i.d.): superior antitumor effects
[4]; 12.5 or 20 mg/kg
  body weight loss: did not cause body weight loss
